Test results reported in patent US20170119790A1, “Agents, Uses and Methods” (CYTOGUIDE A/S, priority 2009, published 2017).
Entries after “also recorded” stand apart in the source; their conditions may differ. Where two headings read alike, the source gives them in different places.

What was measured:
[1] = tested on: LPS mediated TNFα stimulation; assay: Rat in vivo LPS model; parameters: species or system Lewis rats
[2] = tested on: collagen-induced arthritis; details: for body weight after initiation of treatment: FIG. 47; for day of disease onset: mean±SD; for thymus weight compared to vehicle: at sacrifice
Procedure: The effect of dexamethasone on arthritis development in the rat CIA model was tested at three dosages (0.01, 0.1 and 1 mg/kg). Dexamethasone was administered intravenously on day 10 (day of disease onset), 13, 16 and 19. […] Treatment with vehicle (PBS/2.5% EtOH) served as negative control. Rats were sacrificed 21 days after immunization.
Collagen arthritis was induced in 9 weeks old female Lewis rats using a two-step immunization protocol. On day 0, all mice were immunized by intradermal injection of 1 mg/ml bovine type II collagen emulsified in Incomplete Freund's adjuvant at several sites at the back. Arthritis development was accelerated by an intradermal boost in the back and tail-base with 100 Sg bovine type II collagen in IFA on day 7. In order to perform immunization and intradermal boost, rats were anesthetized by inhalation of 3-4% isoflurane in a mixture of oxygen and N2O.
Rats were evaluated 6 times per week (once during weekends) for arthritis severity using a macroscopic scoring system of 0-4 for each paw as detailed below: • 0=no signs of arthritis • 0.5=unloading of the paw and/or light redness of ankle joint • 1=redness and mild swelling of the ankle joint • 2=redness and swelling of paw • 3=severe redness and swelling of entire paw including digits • 4=maximally swollen paw, often involvement of multiple joints and extending towards knee joint.
The total clinical score of an individual rat is defined as the sum of the clinical scores of all four paws for each day. At the end of the study, the cumulative arthritis score was calculated for each rat. This cumulative arthritis score is defined as the sum of the total clinical scores obtained from day 0 till day 21.
The day of disease is defined as the first day of three consecutive days on which a total arthritis score of more than 0 was observed.
The swelling of the hind paws was measured during weekdays with a laser scan micrometer (Mitutoyo, LSM-503S/6200). At the end of the study, the cumulative paw swelling was calculated for each rat as follows: a baseline value was determined by averaging the paw thickness values of day 0-9 when no signs of arthritis were visible. Next, increase in paw thickness was calculated by subtracting the baseline value from the paw thickness values obtained on day 10-21 (delta value). Cumulative paw swelling is defined as the sum of the delta paw thickness values from day 10 till 21.
Spleen, thymus and liver were isolated and weighed at sacrifice. Weights were normalized for body weight.
Collagen-induced arthritis (CIA) was induced in female Lewis rats (9 weeks of age) by intradermal injection of approximately 1 mg bovine type II collagen (Chondrex) emulsified in Incomplete Freund's adjuvant (IFA). The rats were immunized at several sites at the back under isoflurane anaesthesia (day 0) and boosted intradermal at the back and tail-base with 100 μg bovine type II collagen in IFA at day 7. The rats were scored 6 times per weeks for clinical signs of arthritis. Clinical severity of CIA was determined by swelling of individual joints and the number of affected joints in the front and rear paws. Each paw was scored from 1 to 4, so the maximum clinical score, including all four paws was 16.
A total of 20 rats were divided into five treatment groups (4 rats each). […] Changes in ankle size and body weight were monitored during the treatment process. On day 21, all animals were sacrificed and joint tissue, spleen, liver and thymus were dissected.

[3] = tested on: LPS mediated TNFα stimulation; details: serum 2 hours post LPS challenge, FIG. 42
[4] = tested on: LPS mediated TNFα stimulation of rat macrophages / spleen cells; assay: Rat in vitro LPS model; assay type: cell-based; details: 1 μg/ml, LPS 20 hours, FIG. 37
Procedure: Rat or mouse peritoneal or spleen cell suspensions were prepared from female Lewis rats (Harlan) or BalB/cA mice (Taconic). Human mononuclear cells were isolated from buffycoats (Skejby University Hospital) as described above. The purified cells were suspended in RPMI medium supplemented with 10% FCS and 2 mM L-glutamine and cultured (2×10^5 per well) overnight in 96-well flat bottomed plates (125 μl per well) at 37° C. and 5% CO2. Glucocorticoid conjugates (Example 8), free glucocorticoids or PBS were serial diluted in supplemented RPMI medium and added (100 μl) to the overnight cell cultures at final concentrations ranging from 1-10^−7 μg glucocorticoid/ml. After incubation for a specific time ranging from 30 min-24 hours, 150 μl supernatant was carefully aspirated and 150 μl supplemented RPMI medium added to the wells before further incubation overnight. Each incubation condition was tested in duplicates or triplicates. After 16-20 hours, the cells were challenged with lipopolysaccharide (LPS) (250 ng/ml) for 4 hours before supernatant was aspirated from each well and frozen at -20° C.

spleen and thymus weight compared with rats injected with ED2-dexamethasone ([1]; 2 days post LPS injection, FIG. 39B and C): significantly lower
thymus weight compared to vehicle ([2]; 1 mg/kg): significantly decreased
spleen and liver weights compared to vehicle ([2]; 0.01, 0.1 and 1 mg/kg groups): No significant differences
Compound: C[C@@H]1C[C@H]2[C@@H]3CCC4=CC(=O)C=C[C@]4(C)[C@@]3(F)[C@@H](O)C[C@]2(C)[C@@]1(O)C(=O)CO [dexamethasone]
level of TNFα lower compared to vehicle ([1]; i.v. 20 hours before LPS, serum 2 hours after LPS, FIG. 39A): 2 fold
cumulative arthritis score reduced with respect to the vehicle group ([2]; 0.01 mg/kg): 39%
day on which disease incidence of 100% was reached ([2]; 0.01 mg/kg): 14 days
body weight after initiation of treatment ([2]; 0.01 mg/kg): a certain degree of body weight loss
cumulative arthritis score reduced with respect to the vehicle group ([2]; 0.1 mg/kg): 69%
day of disease onset ([2]; 0.1 mg/kg i.v. day 10, 13, 16, 19): 13.8 ± 1.0 days
thymus weight compared to vehicle ([2]; 0.1 mg/kg): significantly decreased; also recorded: significantly lower
cumulative arthritis score reduced with respect to the vehicle group ([2]; 1 mg/kg): 91%
day of disease onset ([2]; 1 mg/kg i.v. day 10, 13, 16, 19): 18.3 ± 2.1 days
body weight after initiation of treatment ([2]; 0.01, 0.1 and 1 mg/kg groups): decreased gradually
TNFα level lower compared to vehicle [3]: 2 fold
TNFα concentration higher in supernatants of macrophages stimulated without the agent (ED2 or PBS) [4]: approximately 10 fold
